Results reported in paper PMC7555825, “New Insights of the Zn(II)-Induced P2 × 4R Positive Allosteric Modulation: Role of Head Receptor Domain SS2/SS3, E160 and D170” (International Journal of Molecular Sciences, 2020).
Where a chain is given by its changes, count along the chain named.

Experiments:
rP2 × 4R E118Q mutant = molecular target: T1, rP2 × 4R E118Q mutant (Rattus norvegicus, UniProt P51577, E118Q); test: ATP concentration–response curves, voltage clamp, E118Q mutant; format: cell-based; details: 10 µM Zn(II)
T1 construct: host or cells: Xenopus laevis oocytes
T1 sequence (P51577 1-388 E118Q): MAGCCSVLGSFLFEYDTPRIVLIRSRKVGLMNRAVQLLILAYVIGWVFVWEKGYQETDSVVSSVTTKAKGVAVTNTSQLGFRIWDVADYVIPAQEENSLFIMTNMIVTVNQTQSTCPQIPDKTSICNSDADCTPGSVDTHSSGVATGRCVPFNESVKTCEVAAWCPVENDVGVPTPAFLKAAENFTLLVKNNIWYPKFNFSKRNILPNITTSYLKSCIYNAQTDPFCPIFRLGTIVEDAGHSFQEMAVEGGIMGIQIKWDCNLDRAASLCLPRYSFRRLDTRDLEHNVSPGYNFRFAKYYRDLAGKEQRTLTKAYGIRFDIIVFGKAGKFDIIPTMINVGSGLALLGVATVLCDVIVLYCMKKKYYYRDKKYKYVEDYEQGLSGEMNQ

rP2 × 4R = molecular target: T2, rP2 × 4R (Rattus norvegicus, UniProt P51577); test: Short protocol: Zn(II) potentiation of single 10 µM ATP-evoked currents before/after thiol reagent treatment, rP2 × 4R oocytes; format: cell-based; details: for fold increase of ATP-evoked currents by Zn(II): 10 µM ATP
T2 construct: host or cells: Xenopus laevis oocytes (intranuclear plasmid injection, pcDNA3)
T2 sequence (P51577 1-388): T1 sequence (P51577 1-388 E118Q) with Q118E
Method: (§1) A simpler and shorter assay to test the Zn(II) potentiation was developed to better assess the loss of Zn(II) modulation elicited by the joint co-treatment of NEM plus Zn(II). […] Ten minutes after alkylator washout, cells were treated with Zn(II) plus NEM or iodoacetamide (IA) for 5 min followed by 20 min of alkylator washout. Next, the P2 × R was tested again to examine the magnitude of the Zn(II) potentiation.
(§2) After 10 min of washout we applied 300 µM NEM, 300 µM IA, 300 µM IAc, or 300 µM DTNB for 5 min in absence or presence of Zn(II) (10 µM for rP2 × 4R and 30 µM for rP2 × 2R).
After 10 min of washout we applied 300 µM NEM + 10 µM DTT.

D170A mutant = test system: D170A mutant; set-up: method as in Kasuya et al., (2016) 38; details: ref Kasuya et al., (2016) 38; cited from earlier work
rP2 × 2R [1] = molecular target: T3, rP2 × 2R (Rattus norvegicus, UniProt P49653); test: Short protocol: Zn(II) potentiation of single 10 µM ATP-evoked currents before/after thiol reagent treatment, rP2 × 2R oocytes; format: cell-based; set-up: expressed in transfected cells; host or cells: Xenopus laevis oocytes (intranuclear plasmid injection); details: for times potentiation of ATP-evoked currents by Zn(II): 30 µM Zn(II)
T3 sequence (P49653 1-472): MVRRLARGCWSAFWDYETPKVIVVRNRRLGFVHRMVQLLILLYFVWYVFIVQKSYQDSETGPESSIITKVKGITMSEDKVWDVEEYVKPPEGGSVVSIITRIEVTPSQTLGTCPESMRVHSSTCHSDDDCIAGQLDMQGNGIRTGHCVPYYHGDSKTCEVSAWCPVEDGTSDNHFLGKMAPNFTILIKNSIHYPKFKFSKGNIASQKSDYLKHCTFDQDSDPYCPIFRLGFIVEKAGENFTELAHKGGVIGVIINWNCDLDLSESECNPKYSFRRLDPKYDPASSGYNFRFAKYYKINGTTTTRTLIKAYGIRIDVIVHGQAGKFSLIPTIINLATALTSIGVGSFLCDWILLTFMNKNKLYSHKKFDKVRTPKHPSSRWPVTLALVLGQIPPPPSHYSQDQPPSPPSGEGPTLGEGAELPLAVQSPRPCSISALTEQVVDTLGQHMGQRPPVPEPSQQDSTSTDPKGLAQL
Method: as §1, §2

rP2 × 2R [2] = molecular target: T3, rP2 × 2R; set-up: expressed in transfected cells; host or cells: Xenopus laevis oocytes (intranuclear plasmid injection); method as in PMID 10737610, PMID 10188989, PMID 10322050, PMID 8622997; details: P2 × 2R; cited from earlier work
rP2 × 2R [3] = molecular target: T3, rP2 × 2R; details: NEM treatment + Zn(II) group; control before treatment (first ATP curve)

| Imax (rP2 × 2R [3]) [µA] | SMILES | fold leftward shift of ATP concentration–response curve by Zn(II) (rP2 × 4R E118Q mutant) [fold] | fold increase of ATP-evoked currents by Zn(II) (rP2 × 4R; 10 µM Zn(II), after 300 µM NEM plus 10 µM Zn(II) incubation) [fold] | fold increase of ATP-evoked currents by Zn(II) (rP2 × 4R; 10 µM Zn(II), after 300 µM NEM treatment (no Zn(II)) and washout) [fold] | fold increase of ATP-evoked currents by Zn(II) (rP2 × 4R; 10 µM Zn(II), before NEM plus Zn(II) incubation) [fold] | fold increase of ATP-evoked currents by Zn(II) (rP2 × 4R; 10 µM Zn(II), before NEM treatment) [fold] | fold potentiation of ATP-evoked currents by Zn(II) (rP2 × 4R; 10 µM Zn(II), before 10 µM DTT + 300 µM NEM treatment) [fold] | ATP plus Zn(II) current after DTT plus NEM treatment, fold for the first ATP application (rP2 × 4R; 10 µM Zn(II), no potentiation by Zn(II) observed) [fold] | fold potentiation of 10 µM ATP-evoked currents by Zn(II) (rP2 × 4R; 10 µM Zn(II), prior to any treatments) [fold] | fold Zn(II)-induced potentiation of ATP-evoked currents (rP2 × 4R; after 300 µM DTNB plus 10 µM Zn(II) treatment) [fold] | fold Zn(II)-induced potentiation of ATP-evoked currents (rP2 × 4R; after 300 µM IAc plus 10 µM Zn(II) treatment) [fold] | reversibility of the metal effect (rP2 × 4R; after 10 min washout initial 10 µM ATP-gated current fully recovered) | fold Zn(II)-induced potentiation of ATP-evoked currents (rP2 × 4R; before DTNB plus Zn(II) treatment) [fold] | fold Zn(II)-induced potentiation of ATP-evoked currents (rP2 × 4R; before IAc plus Zn(II) treatment) [fold] | fold potentiation of the 3 µM ATP-gated currents (D170A mutant) [fold] | times potentiation of ATP-evoked currents by Zn(II) (rP2 × 2R [1]; before IA + Zn(II) treatment, Figure 2F) [times] | times potentiation of ATP-evoked currents by Zn(II) (rP2 × 2R [1]; before NEM + Zn(II) treatment, Figure 2E) [times] | Zn(II) concentration potentiating the ATP-evoked currents (rP2 × 2R [1]; co-application with ATP, Figure S1 right) [µM] | fold leftward displacement of the ATP concentration–response curve by Zn(II) (rP2 × 2R [2]) [fold] |
| --- | --- | --- | --- | --- | --- | --- | --- | --- | --- | --- | --- | --- | --- | --- | --- | --- | --- | --- | --- |
|  | [Cl-].[Cl-].[Zn+2] [Zn(II), zinc chloride (ZnCl2)] | 13.6 | 1.3 ± 0.2 | 1.6 ± 0.2 | 2.4 ± 0.3 | 1.8 ± 0.1 | 2.0 ± 0.2 | 2.4 ± 0.7 | ~2 | 2.1 ± 0.4 | 2.4 ± 0.7 | reversible | 1.9 ± 0.3 | 2.2 ± 0.2 | 2 | 8.3 ± 4.0 | 11.4 ± 2.0 | 30 to 300 | 5 |
| 26.7 ± 3.5 | Nc1ncnc2c1ncn2[C@@H]1O[C@H](COP(=O)(O)OP(=O)(O)OP(=O)(O)O)[C@@H](O)[C@H]1O [ATP, adenosine triphosphate] |  |  |  |  |  |  |  |  |  |  |  |  |  |  |  |  |  |  |
